Data on one compound can be found in US20160318856A1, “Substituted Urea eIF2alpha Kinase Activators” (THE BRIGHAM AND WOMEN'S HOSPITAL, INC., priority 2013, published 2016).

Like-named read-outs stand apart in the source and are kept apart here.

For assay [1], the system named is eIF2α phosphorylation (eIF2•GTP•Met-tRNAi ternary complex; HRI activation). Put plainly: surrogate dual luciferase eIF2α phosphorylation (ternary complex) assay. Conditions: Homo sapiens; surrogate eIF2α phosphorylation assay, Table 3; read-out: Emax (F/R). The format is cell-based, human. An outline of the steps:
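Cell-based dual luciferase reporter: firefly luciferase behind the ATF-4 5′UTR (uORFs) and renilla luciferase behind a uORF-free 5′UTR, read with a dual glow kit. Activity given as firefly/renilla ratio normalised to DMSO wells set at 1, with a rising ratio reflecting reduced ternary complex (e.g., HRI activation).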

Another assay concerns NIH/3T3 fibroblast cells. Put plainly: cell proliferation (SRB) assay, NIH/3T3. The format is cell-based. Conditions: for IC50: Mus musculus, NIH3T3. The protocol:
(§1) Cells were seeded in 96-well plates and maintained for 5 days in the presence of 0.5 to 20 μM of individual compound, and cell proliferation was measured by the sulforhodamine B (SRB) assay as described previously (see, for example, Palakurthi, S. S. et al. Cancer Research 2000, 60(11), 2919-2925). Briefly, at the end of a 5-day treatment, cells were fixed in 10% cold trichloroacetic acid. Cell number was estimated by measuring the remaining bound dye of sulforhodamine B after washing. The percentage of growth was calculated by using the equation: 100×[(T−T0)/(C−T0)], where T and C represent the absorbance in treated and control cultures at Day 5, and T0 at time zero, respectively. If T is less than T0, cell death has occurred and can be calculated from 100×[(T−T0)/T0].
The experiments were conducted in triplicate, and each experiment was independently performed three times. IC50=effective dose of drug that inhibit cell proliferation by 50%. Data are shown as Mean±S.E.M.
Compounds I-6p, I-17, I-18 and I-20 were tested in NIH/3T3 fibroblast and CRL-2813 melanoma cancer cells in cell proliferation assay. The experiment was conducted in triplicate and each experiment was independently performed three times. Data are shown as Mean IC50±S.E.M.

A further assay deals with A-549. Put plainly: cell proliferation assay, A-549. It counts as cell-based. Conditions: Homo sapiens, A549; A-549, Lung. As for the experimental part: as §1
In another assay the test system is CaSki. Put plainly: cell proliferation assay, CaSki. The format is cell-based. The following applies: Homo sapiens, Ca-Ski, Cervix. The protocol:
as §1

For `O=C(Nc1cccc(C(F)(F)F)c1)NC1CCC(Oc2ccc(OC(F)(F)F)cc2)CC1` (stereo not drawn) [Compound I-17, 1-(4-(4-(trifluoromethoxy)phenoxy)cyclohexyl)-3-(3-(trifluoromethyl)phenyl)urea], the maximal fold induction in assay [1] is 15.4. Also, the “fold higher potency on cancer cells compared to non-transformed cells” value in the assay on NIH/3T3 fibroblast cells (CRL-2813 human melanoma vs NIH-3T3 fibroblast) is “five-fold higher potency”. Besides, the IC50 (as a rule, the midpoint of a concentration-inhibition curve) in the assay with NIH/3T3 fibroblast cells (NIH/3T3, Table 5, Mean±S.E.M., read-out: IC50) was found to be 3.4 ± 0.2 µM; with NIH/3T3 fibroblast cells (NIH/3T3, Table 8, Mean IC50±S.E.M., read-out: IC50 of compounds) it was 3.4 ± 0.2 µM; in the assay on A-549 it was 0.9 µM; in the assay with CaSki, 2.8 µM.
